Test systems include 786-0; A498; A549; BT-549; CAKI-1; HCC 2998; HOP-62; Hs-578T; KM12; LOX IMVI; M14; MCF7; MDA-MB-231; MDA-N; NCI-H23; OVCAR-3; OVCAR-4; SF-539; SN12C; UO-31.
What all share (assay): inhibition of tumour cell growth, NCI panel, 48 h

Molecules are shown by their SMILES.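 Briefly, cells in 96-well plates were exposed to five compound concentrations for 48 h, and endpoints were estimated by linear interpolation. At the GI50, growth is halved.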 Active and inactive are the calls of the source. Rule as the data show it: active = GI50 up to about 1.1 µM and inactive = higher. A value given as a limit tells only on which side of the number the result lay.

Take `Cc1cccc(C2NC(=O)c3ccccc3N2)c1` (stereo not given): the GI50 with 786-0 was 4.55 µM (inactive); in the assay on A498, 6.4 µM (inactive); in the assay with A549 it was 6.12 µM (inactive); in the assay on BT-549, 5.68 µM (inactive); in the assay with CAKI-1, 8.65 µM (inactive); in the assay on HCC 2998, 6.64 µM (inactive). Also, the GI50 in the assay with HOP-62 was 6.03 µM (inactive); in the assay on Hs-578T it was 8.43 µM (inactive); in the assay on KM12, 3.21 µM (inactive); in the assay on LOX IMVI, > 27 µM (inactive); with M14 it was 2.64 µM (inactive); in the assay on MCF7, 3.15 µM (inactive). Moreover, the GI50 in the assay with MDA-MB-231 is 25.8 µM (inactive); with MDA-N, 0.543 µM (active); with NCI-H23 it was 5.11 µM (inactive); in the assay with OVCAR-3, 3.22 µM (inactive); with OVCAR-4, > 49.1 µM (inactive); in the assay with SF-539, 2.33 µM (inactive). The figures for the GI50 in the assay on SN12C and in the assay with UO-31 were 5.87 µM (inactive) and > 26.4 µM (inactive), respectively.

For the compound `C=C(NC(=O)C(=C)NC(=O)c1csc(C2=NC3c4csc(n4)C4NC(=O)c5csc(n5)C(C(C)(O)C(C)O)NC(=O)C5CSC(=N5)/C(=C/C)NC(=O)C(C(C)O)NC(=O)c5csc(n5)C3(CC2)NC(=O)C(C)NC(=O)C(=C)NC(=O)C(=C)NC(=O)C(C(C)C)NC2C=Cc3c(C(C)O)cc(nc3C2O)C(=O)OC4C)n1)C(N)=O` (stereo not given), the GI50 with 786-0 was 1.29 µM (inactive); in the assay on A498 it was 2.29 µM (inactive); in the assay with A549 it was 5.42 µM (inactive); in the assay on BT-549 it was 2.37 µM (inactive); in the assay with CAKI-1 it was 3.69 µM (inactive); in the assay on HCC 2998 it was 16.1 µM (inactive). The GI50 was 19.6 µM (inactive) in the assay with HOP-62; 12.3 µM (inactive) in the assay with Hs-578T; 2.66 µM (inactive) in the assay on KM12; 0.357 µM (active) in the assay with LOX IMVI; 2.62 µM (inactive) in the assay with M14; 1.33 µM (inactive) in the assay on MCF7. Further, the GI50 in the assay with MDA-MB-231 was 0.815 µM (active); in the assay with MDA-N, 1.56 µM (inactive); in the assay with NCI-H23 it was 7.13 µM (inactive); in the assay on OVCAR-3 it was 10.3 µM (inactive); in the assay on OVCAR-4, > 52.4 µM (inactive); in the assay on SF-539, 0.34 µM (active). For the same compound, the GI50 in the assay on SN12C was 3.75 µM (inactive); in the assay on UO-31, 60.5 µM (inactive).

In the case of `CNC(=O)OCc1nc(SC)n(C)c1COC(=O)NC`, the GI50 in the assay with 786-0 is 139 µM (inactive); with A498, 198 µM (inactive); with A549, 242 µM (inactive); in the assay with BT-549, 118 µM (inactive); with CAKI-1 it was 87.7 µM (inactive); in the assay on HCC 2998, 122 µM (inactive). The GI50 was 38.5 µM (inactive) with HOP-62; 195 µM (inactive) in the assay with Hs-578T; 191 µM (inactive) in the assay with KM12; 133 µM (inactive) in the assay on LOX IMVI; 164 µM (inactive) in the assay on M14; 132 µM (inactive) in the assay on MCF7. Also, the GI50 was 187 µM (inactive) in the assay on MDA-MB-231; 161 µM (inactive) in the assay on MDA-N; 130 µM (inactive) in the assay with NCI-H23; 187 µM (inactive) with OVCAR-3; 129 µM (inactive) in the assay with OVCAR-4; 133 µM (inactive) in the assay on SF-539. The GI50 in the assay with SN12C was 103 µM (inactive); in the assay with UO-31 it was 185 µM (inactive).

As to `CC(=O)NC1C(OCc2ccccc2)OC(CO)C(O)C1OCC(=O)NC(C)C(=O)NC(CCC(=O)NCCCCCNc1c2ccccc2nc2cccc([N+](=O)[O-])c12)C(N)=O` (stereo not given), the GI50 with 786-0, in the assay with A498, with A549, in the assay with BT-549, with CAKI-1 and in the assay on HCC 2998 was < 0.0001 µM (active) throughout. In addition, the GI50 is < 0.0001 µM (active) in the assay with HOP-62; < 0.01 µM (active) in the assay with Hs-578T; < 0.0001 µM (active) in the assay with KM12; 0.00169 µM (active) in the assay with LOX IMVI; < 0.0001 µM (active) with M14; < 0.0001 µM (active) in the assay with MCF7. Moreover, the GI50 was < 0.0001 µM (active) with MDA-MB-231; < 0.01 µM (active) with MDA-N; < 0.0001 µM (active) in the assay with NCI-H23; < 0.01 µM (active) in the assay with OVCAR-3; 0.00074 µM (active) in the assay on OVCAR-4; < 0.0001 µM (active) in the assay with SF-539. The GI50 in the assay with SN12C is < 0.0001 µM (active); in the assay on UO-31 it was < 0.01 µM (active).

For the compound `O=C1C(Cl)C(c2cc3cc(Br)ccc3nc2Cl)N1c1c(Cl)cccc1Cl` (stereo not given), the GI50 in the assay with 786-0 was 12.4 µM (inactive); in the assay on A498 it was > 25 µM (inactive); in the assay on A549, > 25 µM (inactive); in the assay with BT-549 it was 10.2 µM (inactive); in the assay on CAKI-1, 8.65 µM (inactive); in the assay on HCC 2998, 23.8 µM (inactive). Also, the GI50 with HOP-62 was > 25 µM (inactive); with Hs-578T it was > 25 µM (inactive); with KM12, > 25 µM (inactive); with LOX IMVI it was 3.66 µM (inactive); in the assay on M14, 22.1 µM (inactive); in the assay on MCF7 it was 6.76 µM (inactive). Besides, the GI50 was 19.3 µM (inactive) with MDA-MB-231; 9.68 µM (inactive) with MDA-N; 20.4 µM (inactive) in the assay with NCI-H23; 18.2 µM (inactive) in the assay on OVCAR-3; 5.46 µM (inactive) in the assay on OVCAR-4; 5.27 µM (inactive) in the assay with SF-539. The GI50 is 16.6 µM (inactive) in the assay with SN12C and 1.3 µM (inactive) with UO-31.

Regarding `Cn1c(=O)sc2cc(C(=S)N3CCOCC3)ccc21`, the GI50 in the assay with 786-0, with A498, in the assay on A549, in the assay on BT-549, in the assay with CAKI-1 and with HCC 2998 was > 100 µM (inactive) in each case. Also, the GI50 was > 100 µM (inactive) in the assay with HOP-62; > 41 µM (inactive) in the assay on Hs-578T; > 100 µM (inactive) in the assay with KM12; > 85.7 µM (inactive) with LOX IMVI; > 100 µM (inactive) in the assay with M14; > 100 µM (inactive) with MCF7. The GI50 in the assay on MDA-MB-231, in the assay on MDA-N, in the assay with NCI-H23, in the assay on OVCAR-3, in the assay with OVCAR-4 and with SF-539 was > 100 µM (inactive) throughout. Moreover, the GI50 in the assay on SN12C was > 100 µM (inactive); with UO-31, 60 µM (inactive).

As to `c1ccc2c(c1)CCCN1CCc3ccccc3C21` (stereo not given), the GI50 in the assay on 786-0 was 80.9 µM (inactive); in the assay on A498, > 100 µM (inactive); with A549, 60.1 µM (inactive); in the assay on BT-549, 60.1 µM (inactive); in the assay with CAKI-1, 93.5 µM (inactive); in the assay on HCC 2998, 44.3 µM (inactive). For the same compound, the GI50 with HOP-62 was 50 µM (inactive); in the assay on Hs-578T, > 100 µM (inactive); with KM12 it was 45.6 µM (inactive); in the assay with LOX IMVI it was 29.6 µM (inactive); in the assay with M14, 26.9 µM (inactive); in the assay with MCF7, > 100 µM (inactive). The GI50 was 48.1 µM (inactive) in the assay on MDA-MB-231; 27 µM (inactive) in the assay with MDA-N; 48.4 µM (inactive) in the assay on NCI-H23; > 100 µM (inactive) in the assay on OVCAR-3; 9.46 µM (inactive) with OVCAR-4; 24 µM (inactive) in the assay with SF-539. The results for the GI50 in the assay on SN12C and in the assay with UO-31 were 57 µM (inactive) and 30.3 µM (inactive), respectively.

With `CC1=C(C(=O)NNC(=O)C(N)=O)CC(C(=O)NNC(=O)C(N)=O)=C(C)N1`, the GI50 with 786-0, in the assay with A498, in the assay with A549, in the assay with BT-549, in the assay on CAKI-1 and with HCC 2998 was > 100 µM (inactive) each time. Further, the GI50 with HOP-62, with Hs-578T, in the assay with KM12, in the assay on LOX IMVI, in the assay with M14 and with MCF7 was > 100 µM (inactive) throughout. Moreover, the GI50 in the assay on MDA-MB-231, in the assay on MDA-N, in the assay with NCI-H23, in the assay with OVCAR-3, in the assay on OVCAR-4 and with SF-539 was > 100 µM (inactive) throughout. Further, the GI50 in the assay with SN12C and in the assay with UO-31 was > 100 µM (inactive) each time.

`COc1ccc(/C=N/NC(=O)c2ccc(O)c(CN(C)C)c2)cc1`: the GI50 was > 100 µM (inactive) in the assay on 786-0; 18.2 µM (inactive) in the assay with A498; > 100 µM (inactive) with A549; > 100 µM (inactive) in the assay on BT-549; > 100 µM (inactive) with CAKI-1; > 100 µM (inactive) in the assay on HCC 2998. The GI50 with HOP-62, with Hs-578T, with KM12, in the assay on LOX IMVI, in the assay with M14 and in the assay on MCF7 was > 100 µM (inactive) throughout. The GI50 in the assay on MDA-MB-231, in the assay on MDA-N, in the assay on NCI-H23, in the assay on OVCAR-3, in the assay with OVCAR-4 and in the assay with SF-539 was > 100 µM (inactive) throughout. The GI50 in the assay with SN12C and in the assay on UO-31 was > 100 µM (inactive) throughout.

In the case of `CCCCCCCCCCCC(=O)OC[C@H](C[As](=O)(O)O)OC(=O)CCCCCCCCCCC`, the GI50 with 786-0 was 13.2 µM (inactive); with A498, 6.31 µM (inactive); in the assay with A549, 6.92 µM (inactive); with BT-549, 3.84 µM (inactive); with CAKI-1, 8.55 µM (inactive); in the assay with HCC 2998 it was 8.13 µM (inactive). In addition, the GI50 in the assay on HOP-62 is 14.8 µM (inactive); in the assay with Hs-578T it was 2.78 µM (inactive); in the assay on KM12 it was 8.11 µM (inactive); in the assay with LOX IMVI, 8.79 µM (inactive); in the assay with M14 it was 2.62 µM (inactive); with MCF7, 8.75 µM (inactive). For the same compound, the GI50 in the assay with MDA-MB-231 was 3.81 µM (inactive); with MDA-N, 4.34 µM (inactive); in the assay with NCI-H23, 5.98 µM (inactive); with OVCAR-3, 5.92 µM (inactive); with OVCAR-4 it was 17.7 µM (inactive); in the assay with SF-539 it was 14.2 µM (inactive). Also, the GI50 in the assay on SN12C was 3.73 µM (inactive); in the assay on UO-31, 16 µM (inactive).

The values above are taken from ChEMBL document CHEMBL1201862, “PubChem BioAssay data set” (2004).
